Measured values reported in patent publication US20110034526A1, “Benzimidazole Compounds” (Wyeth LLC, priority 2007, published 2011).

What was measured:
human LXRβ = molecular target: T1, human LXRβ (Homo sapiens, UniProt P55055); experiment: Ligand-binding test procedure for human LXRβ (3H T0901317 tracer, flash plates)
T1 construct: biotin (biotinylated); made in house; host or cells: E. coli (crude extract)
T1 sequence (P55055 1-460): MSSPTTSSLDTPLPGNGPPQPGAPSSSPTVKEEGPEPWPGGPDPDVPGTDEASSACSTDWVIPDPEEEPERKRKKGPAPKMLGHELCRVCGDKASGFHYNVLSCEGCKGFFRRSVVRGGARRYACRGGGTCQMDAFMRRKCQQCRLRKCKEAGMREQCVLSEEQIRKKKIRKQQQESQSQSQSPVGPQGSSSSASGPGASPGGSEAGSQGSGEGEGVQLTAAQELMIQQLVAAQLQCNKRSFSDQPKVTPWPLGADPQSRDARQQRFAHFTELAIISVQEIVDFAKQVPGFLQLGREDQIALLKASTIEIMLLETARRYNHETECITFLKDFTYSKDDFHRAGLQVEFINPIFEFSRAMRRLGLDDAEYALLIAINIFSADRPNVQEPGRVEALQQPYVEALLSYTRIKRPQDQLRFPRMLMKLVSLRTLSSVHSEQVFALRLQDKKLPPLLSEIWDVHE
Procedure: Receptor source: E. coli extracted from cells expressing biotinylated hLXRβ. Extract was made in a similar buffer as above, but with 50 mM TRIS.
Washed streptavidin and coated flash plates with wash buffer. Diluted receptor extract to give Bmax ˜4000 cpm and add to the wells. Wrapped the plates in aluminum foil and stored them at +4° C. overnight.
(§1) Made a dilution series in DMSO of the test ligands. Made a 5 nM solution of the radioactive tracer in buffer. Mixed 250 μl diluted tracer with 5 μl of the test ligand from each concentration of the dilution series. Washed the receptor-coated flash plates. Added 200 μl per well of the ligand/radiolabel mixture to the receptor-coated flash plates. Wrapped the plates in aluminum foil and incubate at +4° C. over night.
Aspirated wells, and washed the flashed plates. Sealed the plate. Measured the remaining radioactivity in the plate.

human LXRα = molecular target: T2, human LXRα (Homo sapiens, UniProt Q13133); experiment: Ligand-binding test procedure for human LXRα (3H T0901317 tracer, flash plates); details: biotinylated hLXRα, tracer 3H T0901317
T2 construct: biotin (biotinylated); made in house; host or cells: E. coli (crude extract)
T2 sequence (Q13133 1-447): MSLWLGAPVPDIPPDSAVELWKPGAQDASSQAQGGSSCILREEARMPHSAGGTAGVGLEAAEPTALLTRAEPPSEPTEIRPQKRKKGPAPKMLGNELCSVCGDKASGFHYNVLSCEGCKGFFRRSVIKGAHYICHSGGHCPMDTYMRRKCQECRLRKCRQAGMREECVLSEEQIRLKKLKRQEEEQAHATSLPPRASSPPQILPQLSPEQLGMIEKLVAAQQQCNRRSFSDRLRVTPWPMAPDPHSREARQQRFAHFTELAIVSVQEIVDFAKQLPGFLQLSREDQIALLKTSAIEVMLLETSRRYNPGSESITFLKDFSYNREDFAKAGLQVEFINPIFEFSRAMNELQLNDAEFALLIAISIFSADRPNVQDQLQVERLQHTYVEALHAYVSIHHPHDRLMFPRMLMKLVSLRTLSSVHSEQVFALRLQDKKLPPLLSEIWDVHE
Procedure: Receptor source: E. coli extract from cells expressing biotinylated hLXRcc. Extract was made in a similar buffer as above, but with 50 mM TRIS.
Washed streptavidin and coated flash plates with wash buffer. Diluted receptor extract to give Bmax ˜4000 cpm and add to the wells. Wrapped the plates in aluminum foil and stored them at +4° C. over night.
as §1
Aspirated wells, and wash the flashed plates. Sealed the plate. Measured the remaining radioactivity in the plate.

| Compound | IC50 (human LXRβ) [nM] | IC50 (human LXRα) [nM] |
| --- | --- | --- |
| Cc1nc2c(C(F)(F)F)cccc2n1-c1ccc(Oc2cc(F)cc(S(C)(=O)=O)c2)cc1Cl [Example 103, 1-{2-chloro-4-[3-fluoro-5-(methylsulfonyl)phenoxy]phenyl}-2-methyl-4-(trifluoromethyl)-1H-benzimidazole] | 235 | 2670 |
| Cc1cc(Oc2ccc(S(C)(=O)=O)cc2)ccc1-n1c(C)nc2c(C(F)(F)F)cccc21 [Example 100, 2-methyl-1-{2-methyl-4-[4-(methylsulfonyl)phenoxy]phenyl}-4-(trifluoromethyl)-1H-benzimidazole] | 1310 | 12000 |
| Cc1nc2c(Cl)cccc2n1-c1cccc(Oc2cc(F)cc(S(C)(=O)=O)c2)c1 [Example 44, 4-chloro-1-{3-[3-fluoro-5-(methylsulfonyl)phenoxy]phenyl}-2-methyl-1H-benzimidazole] | 3.5 | 12 |
| CCS(=O)(=O)c1cc(F)cc(Oc2ccc(Cl)c(-n3c(C)nc4c(Cl)cccc43)c2)c1 [Example 59, 4-chloro-1-{2-chloro-5-[3-(ethylsulfonyl)-5-fluorophenoxy]phenyl}-2-methyl-1H-benzimidazole] | 432 | 2000 |
| Cc1nc2c(Cl)cccc2n1-c1cccc(Oc2cc(Cl)cc(S(C)(=O)=O)c2)c1 [Example 46, 4-chloro-1-{3-[3-chloro-5-(methylsulfonyl)phenoxy]phenyl}-2-methyl-1H-benzimidazole] | 3.6 | 36 |
| CC(C)S(=O)(=O)c1cccc(Oc2cccc(-n3c(C(F)(F)F)nc4c(C(F)(F)F)cccc43)c2)c1 [Example 78, 1-{3-[3-(isopropylsulfonyl)phenoxy]phenyl}-2,4-bis(trifluoromethyl)-1H-benzimidazole] | 92 | 1370 |
| Cc1cc(Oc2cccc(S(C)(=O)=O)c2)ccc1-n1c(C)nc2c(C(F)(F)F)cccc21 [Example 93, 2-methyl-1-{2-methyl-4-[3-(methylsulfonyl)phenoxy]phenyl}-4-(trifluoromethyl)-1H-benzimidazole] | 191 | 2780 |
| Cc1cc(Oc2cccc(S(C)(=O)=O)c2)ccc1-n1cnc2c(C(F)(F)F)cccc21 [Example 90, 1-{2-methyl-4-[3-(methylsulfonyl)phenoxy]phenyl}-4-(trifluoromethyl)-1H-benzimidazole] | 802 | 6530 |
| CS(=O)(=O)c1cccc(COc2ccc(-n3c(C(F)(F)F)nc4c(C(F)(F)F)cccc43)cc2)c1 [Example 86, 1-(4-{[3-(methylsulfonyl)benzyl]oxy}phenyl)-2,4-bis(trifluoromethyl)-1H-benzimidazole] | > 1000 | > 1000 |
| Cc1nc2c(Cl)cccc2n1-c1cccc(Oc2ccccc2S(C)(=O)=O)c1 [Example 50, 4-chloro-2-methyl-1-{3-[2-(methylsulfonyl)phenoxy]phenyl}-1H-benzimidazole] | 170 | 746 |
| CCS(=O)(=O)c1cc(F)cc(Oc2cccc(-n3c(C)nc4c(Cl)cccc43)c2)c1 [Example 45, 4-chloro-1-{3-[3-(ethylsulfonyl)-5-fluorophenoxy]phenyl}-2-methyl-1H-benzimidazole] | 6.6 | 31 |
| CS(=O)(=O)c1cccc(COc2ccc(Cl)c(-n3cnc4c(C(F)(F)F)cccc43)c2)c1 [Example 84, 1-(2-chloro-5-{[3-(methylsulfonyl)benzyl]oxy}phenyl)-4-(trifluoromethyl)-1H-benzimidazole] | 110 | 1500 |
| CCc1nc2c(C(F)(F)F)cccc2n1-c1ccc(Oc2cccc(S(=O)(=O)CC)c2)cc1 [Example 68, 2-ethyl-1-{4-[3-(ethylsulfonyl)phenoxy]phenyl}-4-(trifluoromethyl)-1H-benzimidazole] | 1230 | > 1000 |
| Cc1nc2c(C(F)(F)F)cccc2n1-c1cccc(Oc2ccccc2S(=O)(=O)CCCO)c1 [Example 13, 3-[(2-{3-[2-methyl-4-(trifluoromethyl)-1H-benzimidazol-1-yl]phenoxy}phenyl)sulfonyl]propan-1-ol] | 1900 | > 1000 |
